One compound from patent US11078188B2, “Dihydroquinoxaline bromodomain recognition protein inhibitor, preparation method and use thereof” (SHANGHAI INSTITUTE OF MATERIA MEDICA, CHINESE ACADEMY OF …, priority 2017, dated 2021) can be followed below.

In one data set the target is BRD4 (I) (Homo sapiens (Human), UniProt O60885). Kind of data set: Fluorescence anisotropy (FA) binding test on BRD4 (I). To be noted: BRD4 (I) 10 nM, fluorescent (+)-JQ1 substrate 5 nM, read-out: BRD4 (1) IC50. The protocol: The binding activity of the compound to BRD4 (I) was tested using a fluorescence anisotropy (FA) method. The principle of FA test is to calculate and analyze the fluorescence polarization values in the horizontal and vertical directions by detecting the change of molecular weight before and after the interaction of fluorescein-labeled small molecules with other molecules. If the equilibrium of the binding between the fluorescently labeled small molecule and macromolecule is established, it will move slowly when excited, and the measured fluorescence polarization value will increase. If the binding between the fluorescently labeled small molecule and the macromolecule is replaced by another ligand, its rotation or flipping speed in the free state will be faster, and the emitted light will be depolarized relative to the plane of the excitation light, and the measured polarized light value will decrease to calculate the fluorescence anisotropy of the sample.
Expression and purification of the BRD4(I) recognition domain: colonies of newly transformed plasmid DNA from E. coli BL21(DE3)-condon plus-RIL cells were cultivated in 50 mL of Terrific Broth medium containing 50 μg/mL kanamycin and 34 μg/mL chloramphenicol at 37° C. overnight (starting culture). The starting culture was then diluted 100-fold in 1 L of fresh TB medium and the cells were grown at 37° C. to an optical density of about 0.8 at OD600 and then the temperature was lowered to 16° C. When the system was equilibrated at 16° C., the optical density at OD600 was approximately 1.2, and protein expression was induced with 0.2 mmol of isopropyl-β-D-thiogalactopyranoside (IPTG) overnight at 16° C. Bacteria were harvested by centrifugation (4000×g, 20 minutes, 4° C.) and stored as a pellet at −80° C. The cells expressing His 6-tagged protein was resuspend in lysis buffer [50 mmol 4-hydroxyethylpiperazineethanesulfonic acid (HEPES), 25° C., pH 7.5, 500 mmol NaCl, 10 mmol imidazole, 5% glycerol and freshly added 0.5 mmol of tris(2-carboxyethyl)phosphine hydrochloride (TCEP) and 1 mmol of phenylmethanesulfonyl fluoride (PMSF)] and lysed at 4° C. using JN 3000PLUS high pressure homogenizer (JNBIO-Guangzhou, China). The lysate was clarified by centrifugation (12,000×g for 1 hour at 4° C.) and applied to a nickel-nitriloacetate agarose column. The column was washed once with 50 mL of wash buffer containing 30 mmol of imidazole. The protein was eluted using imidazole in an elution buffer in a stepwise elution (100-250 mmol imidazole in 50 mmol HEPES, 25° C., pH 7.5, 500 mmol NaCl, 5% glycerol). All fractions were collected and monitored by SDS-polyacrylamide gel electrophoresis (Bio-Rad Criterion TM Precast Gels, 4-12% Bis-Tris, 1.0 mm, from Bio-Rad, CA). After 1 mmol of dithiothreitol (DTT) was added, the eluted proteins were treated with tobacco […] virus (TEV) protease overnight at 4° C. to remove the His6 tag. The protein was concentrated and further purified by size exclusion chromatography on a Superdex 75 16/60 HiLoad gel filtration column. The samples were monitored by SDS-polyacrylamide gel electrophoresis and concentrated to 8-10 mg/mL with gel filtration buffer, 10 mmol Hepes pH 7.5, 500 mM NaCl, 1 mmol DTT, and used for protein binding assays and crystallization.
The fluorogenic substrate was (+)-JQ1 linked to a fluorescent molecule and the working concentration was 5 nM. BRD4 (I) protein had 10 nM of working concentration and the total reaction system was 40 μL. The buffer was 50 mM 4-hydroxyethylpiperazineethanesulfonic acid (HEPES) pH 7.4, 150 mM NaCl, 0.5 mM 3[(3-cholamidopropyl)dimethylammonio]propanesulfonate (CHAPS). […] The final concentration of DMSO was chosen to be 0.2%, taking into account the solubility of the compound and the effect of DMSO on the assay. All measurements were made under these conditions. […]

For another data set, the system named is CYP enzyme. Kind of data set: Mechanistic inhibition test (TDI test). Format: in vitro ADME. The settings on record: human liver microsomes 0.2 mg/ml; mechanism inhibition if kobs greater than 200. The protocol:
The system which was 200 μl of human liver microsomes (final concentration: 0.2 mg/ml) was used for mechanistic inhibition incubation. The system contained 10 μl compound, mixed positive inhibitor (Troleandomycin 10 μl, Paroxetine 10 μl, Tienilic acid 10 μM, Furafylline 10 μl) or 10 μl negative control PRO. After NADPH (final concentration: 1 mM) or PBS was added, the system was incubated for 0 min, 5 min, 10 min and 30 min, then NADPH (final concentration: 1 mM) and mixed probe substrate (Midazolam 5 μM, Testosterone 50 μl, Dextromethophan 5 μM, Diclofenac 10 μl, Phenacetin 5 0 μM, S-(+)-mephenytoin 50 μl) were added and incubated for 10 min. Then the reaction was stopped. The test for positive inhibitor CYP2C19 was carried out alone, the inhibitor S-(+)-fluoxetine was 100 μM. The enzyme activity was calculated by measuring the relative production amount of metabolite. kobs was calculated.
(§1) HLM Clint (μl/min/mg) refers to the clearance rate of compounds in human liver microsomes having a unit of μl/min/mg; mLM Clint (μl/min/mg) refers to the clearance rate of compounds in mouse liver microsomes having a unit of μl/min/mg; HLM t1/2 (min) refers to the half-life of the compound in human liver microsomes having a unit of minutes; mLM t1/2 (min) refers to the half-life of the compound in mouse liver microsomes having a unit of minutes. TDI means that the mechanism inhibition test of compounds on CYP enzyme evaluates whether the compound has time-dependent inhibition of the enzyme.
(In general: Microsomes from liver hold many membrane-bound enzymes, among them those of drug oxidation.)

The next data set deals with 2D6 (Homo sapiens (Human), UniProt P10635). Nature of the data set: Direct inhibition test (DI test), CYP 2D6. To be noted: human liver microsomes 0.2 mg/ml, 20 min. Format: in vitro ADME. The protocol: (§2) The system which was 100 μl of human liver microsomes (final concentration: 0.2 mg/ml) was used for direct inhibition incubation. The system contained NADPH (final concentration: 1 mM), 10 μl compound, positive inhibitor cocktail (ketoconazole, 10 μl, quinidine 10 μl, sulfaphenazole 100 μl, naphthoflavone 10 μl, tranylcypromine 1000 μl), negative control 10 μl DMSO and mixed probe substrate (midazolam 10 μl, testosterone 100 μl, dextromethorphan 10 μl, diclofenac 20 μl, phenacetin 100 μl, mephenytoin 100 μl). The reaction was stopped after the system was incubated for 20 min. The relative activity of the enzyme was calculated by measuring the relative amount of production of the metabolite.
2D6, sequence (P10635 whole entry): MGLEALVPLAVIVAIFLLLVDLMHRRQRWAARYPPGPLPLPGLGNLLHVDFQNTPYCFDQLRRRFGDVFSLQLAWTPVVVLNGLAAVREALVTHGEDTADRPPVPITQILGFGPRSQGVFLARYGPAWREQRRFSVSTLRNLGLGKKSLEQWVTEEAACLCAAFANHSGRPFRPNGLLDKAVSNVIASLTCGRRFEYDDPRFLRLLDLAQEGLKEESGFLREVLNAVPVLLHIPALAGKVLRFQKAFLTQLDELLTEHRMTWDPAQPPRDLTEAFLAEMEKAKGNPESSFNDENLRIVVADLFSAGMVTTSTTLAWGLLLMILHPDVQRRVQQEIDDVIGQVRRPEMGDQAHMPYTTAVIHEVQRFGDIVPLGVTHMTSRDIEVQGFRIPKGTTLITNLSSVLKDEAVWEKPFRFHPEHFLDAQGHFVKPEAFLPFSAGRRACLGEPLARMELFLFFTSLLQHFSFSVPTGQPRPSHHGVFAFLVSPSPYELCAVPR

In a further data set the target is 3A4 (Homo sapiens (Human), UniProt P08684). Kind of data set: Direct inhibition test (DI test), CYP 3A4. Format: in vitro ADME. To be noted: human liver microsomes 0.2 mg/ml, 20 min; second of two values a/b (two 3A4 probes midazolam, testosterone; assignment not given). The procedure: as §2
3A4, sequence (P08684 whole entry): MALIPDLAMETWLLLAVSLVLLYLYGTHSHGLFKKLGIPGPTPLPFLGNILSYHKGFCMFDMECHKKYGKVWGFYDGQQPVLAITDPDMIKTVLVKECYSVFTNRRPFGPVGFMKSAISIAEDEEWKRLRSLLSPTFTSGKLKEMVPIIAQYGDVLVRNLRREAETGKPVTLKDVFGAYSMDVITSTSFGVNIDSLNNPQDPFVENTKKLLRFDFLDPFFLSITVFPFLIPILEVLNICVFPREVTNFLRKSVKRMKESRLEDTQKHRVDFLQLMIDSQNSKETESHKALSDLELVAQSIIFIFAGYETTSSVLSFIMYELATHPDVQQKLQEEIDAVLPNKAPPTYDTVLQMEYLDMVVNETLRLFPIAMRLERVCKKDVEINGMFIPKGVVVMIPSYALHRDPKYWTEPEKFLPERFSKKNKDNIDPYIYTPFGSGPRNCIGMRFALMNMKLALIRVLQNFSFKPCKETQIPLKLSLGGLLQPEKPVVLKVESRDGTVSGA
For the next data set, the target named is CYP3A4 (Homo sapiens (Human), UniProt P08684). Nature of the data set: Direct inhibition test (DI test), CYP 3A4. Format: in vitro ADME. To be noted: human liver microsomes 0.2 mg/ml, first of two values a/b (two 3A4 probes midazolam, testosterone; assignment not given), read-out: Direct inhibition rate (%) 3A4, first value. The protocol:
as §2

A short description of data set [1]: Metabolic stability in human liver microsomes. Format: in vitro ADME. The settings on record: human liver microsomes 0.5 mg/ml, 1 μM compound, NADPH. The protocol:
The system which was 150 μl of human liver microsomes (final concentration: 0.5 mg/ml) was used for metabolic stability incubation. The system contained reduced coenzyme II (NADPH) (final concentration: 1 mM) and 1 μM compound, positive control or negative control. The reaction was terminated with acetonitrile containing (imiprozine, batch number: 3221; tinidazole, given) at 0 min, 5 min, 10 min, and 30 min, respectively. The mixture was vortexed for 10 min, centrifuged at 15000 rpm for 10 min, and 50 μl of the supernatant was injected into a 96-well plate. The metabolic stability of the compound was calculated by measuring the relative reduction in the original medicament.
as §1

A short description of data set [2]: Metabolic stability in mouse liver microsomes. Format: in vitro ADME.
The target of a further data set is 2C9 (Homo sapiens (Human), UniProt P11712). Kind of data set: Direct inhibition test (DI test), CYP 2C9. The format is in vitro ADME. The settings on record: human liver microsomes 0.2 mg/ml, 20 min. The protocol:
as §2

The target in the next data set is CYP2C19 (Homo sapiens (Human), UniProt P33261). Nature of the data set: Direct inhibition test (DI test), CYP 2C19. The format is in vitro ADME. The settings on record: human liver microsomes 0.2 mg/ml, read-out: Direct inhibition rate (%) 2C19. The protocol: as §2
CYP2C19, sequence (P33261 whole entry): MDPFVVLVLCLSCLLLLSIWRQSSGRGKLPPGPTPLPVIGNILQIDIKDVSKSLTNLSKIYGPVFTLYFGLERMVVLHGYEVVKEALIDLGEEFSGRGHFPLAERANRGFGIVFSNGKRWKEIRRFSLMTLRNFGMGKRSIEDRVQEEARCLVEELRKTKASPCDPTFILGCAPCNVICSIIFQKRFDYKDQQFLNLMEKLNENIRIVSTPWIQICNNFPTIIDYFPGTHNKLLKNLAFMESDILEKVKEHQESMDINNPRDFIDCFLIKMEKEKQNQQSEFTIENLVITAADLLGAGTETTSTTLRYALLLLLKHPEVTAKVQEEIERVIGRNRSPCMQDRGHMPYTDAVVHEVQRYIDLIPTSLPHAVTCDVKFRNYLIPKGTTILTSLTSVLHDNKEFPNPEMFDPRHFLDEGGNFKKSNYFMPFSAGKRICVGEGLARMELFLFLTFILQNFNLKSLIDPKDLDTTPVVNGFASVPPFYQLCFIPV

SMILES strings stand for the structures.

2C9, sequence (P11712 whole entry): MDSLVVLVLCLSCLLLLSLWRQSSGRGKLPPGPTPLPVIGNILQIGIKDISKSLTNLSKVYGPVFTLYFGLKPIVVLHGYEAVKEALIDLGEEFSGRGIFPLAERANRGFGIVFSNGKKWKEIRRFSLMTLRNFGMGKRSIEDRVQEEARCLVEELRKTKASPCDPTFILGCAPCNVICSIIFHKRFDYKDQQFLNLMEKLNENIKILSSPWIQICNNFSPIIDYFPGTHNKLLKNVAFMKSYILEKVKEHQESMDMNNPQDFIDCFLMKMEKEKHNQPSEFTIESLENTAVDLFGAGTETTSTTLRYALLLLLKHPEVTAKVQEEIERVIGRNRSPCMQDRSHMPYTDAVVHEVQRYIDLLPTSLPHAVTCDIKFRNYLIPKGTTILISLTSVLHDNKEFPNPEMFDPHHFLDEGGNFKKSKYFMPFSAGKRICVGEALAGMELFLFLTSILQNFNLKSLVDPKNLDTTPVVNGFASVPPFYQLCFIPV
CYP3A4, sequence (P08684 whole entry): as the sequence (P08684 whole entry) above

Consider `C[C@@H]1C(=O)N(C)c2ccc(-c3nc(C(=O)N4CCCN(C)CC4)nn3-c3ccccc3)cc2N1C1CCCC1` [Example 8], for which, on BRD4 (I), the 50% inhibitory concentration (IC50) (usually the concentration at which inhibition is half-maximal) came to 9.8 nM. Further, in the data set with CYP enzyme, the TDI result is on record as “no”. Besides, on 2D6, the “Direct inhibition rate (%) 2D6” value was “no”. Besides, the “Direct inhibition rate (%) 3A4, second value” on 3A4 came to 6%. Also, the inhibition (usually the percentage by which the read-out fell short of the control) at 20 min on CYP3A4 is 5%; on CYP2C19, 35%. Besides, the values for the microsomal CLint at 1 μM in [1] (read-out: HLM Clint) and in [2] (read-out: mLM Clint) were 58 µL/min/mg and 62 µL/min/mg, respectively. Also, the half-life at 1 μM in data set [1] (read-out: HLM t1/2) was determined as 23.9 min; in [2] (read-out: MLM t1/2), 22.4 min. For the same compound, the “Direct inhibition rate (%) 2C9” value at 2C9 is listed as “no”.
